Test results from a melting point compilation (Tetko et al.; mined from patent text by program, amines drawn as free bases though some values may be those of a salt).

SMILES	melting point [°C]
COc1ccc2[nH]cc(C3=CCC4(CC3)OCCO4)c2c1	161 to 162
CCC(CC)CC(NC(=O)COC)C1(c2ccc(Cl)c(Cl)c2)CCC1 (stereo unspecified)	72 to 74
CN1CC[C@H](c2ccccc2)[C@H](O)C1 (relative stereo)	95 to 97
Nc1ncc(Br)c(NCC2(CO)CCC2)n1	156 to 158
CC1(C)CC(=O)c2cc(Br)ccc21	117 to 118
COc1ccc(C2=CC(=Nc3c(C)cc(C)cc3C)N(C)CN2)cc1OC	165 to 166
Cc1nc(N2CCC(O)C2)c2nc(-c3ccccc3)cc-2[nH]1 (stereo unspecified)	234 to 235
NS(=O)(=O)OCCOc1ccccc1	89 to 91
COCCOC(=O)C1=C(C(F)F)NC(C)=C(C(=O)OC(C)C)C1c1cccc(Cl)c1Cl (stereo unspecified)	127 to 128
COc1c(C)cc2c(c1C)Cc1c-2[nH]c2ccccc12	177
Cc1cc(CC(=O)N[C@H]2CC[C@H](CCN3CCC(c4cccc5c4CCO5)CC3)CC2)on1	188
Cc1ccc(S(=O)(=O)NC2CCCCNC2=O)cc1 (stereo unspecified)	180
Cc1nnc(C(CCN2CC3CC4CC(C3)CC2C4)(c2ccccc2)c2ccccc2)o1	120 to 121
CC(C)(C)OC(=O)NCCCCNC(=O)COc1ccc(Cl)cc1Cl	107
Nc1ccc2ccc(OCCN3CCOCC3)nc2n1	164
CCCCC1=C(C)C=NC1=O	95 to 97
COC(=O)C1(C(F)(F)CCCCCOc2ccc(Cl)cc2)CO1 (stereo unspecified)	54 to 55
CCOC(=O)c1c(C)nc2c(cnn2CC)c1O	118 to 120
CCCCc1cccn1NS(=O)(=O)C1CCCC=C1C(=O)OCC (stereo unspecified)	49 to 50
NS(=O)(=O)CCNC(=O)OCc1ccccc1	107 to 109
CCOC(=O)CCc1cc(O)nn1C	132 to 135
CCC1=Nc2cc(Cl)ccc2CC(c2sccc2C)N1C (stereo unspecified)	94 to 96
CCCCOC(CCN)(c1ccccc1)c1ccccc1	50 to 54

SMILES	melting point [°C]
CC(CCC(=O)O)C1CCC2C3C(=O)CC4CC(OC5CCCCO5)CCC4(C)C3CCC12C (stereo unspecified)	157 to 159
CCOC(=O)CC(=O)c1ccnc(F)c1	66 to 67
CCOCCn1cc2c(C3C(=O)Nc4ccc(Cl)cc43)nc(NCCN(C)C)nc2n1 (stereo unspecified)	293 to 295
COc1c2c(c(OC)c(OC)c1OC)CC(C(=O)O)(c1ccc(OCCCC(=O)O)cc1)C2	148 to 150
CCNC(=O)c1c([Si](C)(C)C)sc2ccccc12	121 to 124
ClCc1nn(-c2ccccc2)c2c1CCCC2	100
CCC(CC)c1ccc(Cl)c2nc(Nc3cc(Cl)cc(Cl)c3)n(CCCCO)c12	208 to 210
CC1(C)O[C@@H]2[C@H](O1)[C@@H](CO)O[C@H]2n1cnc2c(N)nc(I)nc21	185 to 187
CSc1nc2c(F)cccc2s1	30
CCOC(=O)C1NC(=O)C1OC (stereo unspecified)	91 to 92
COc1cc(Cc2cnc(N)nc2N)c2c(c1OC)OC(C)CC2 (stereo unspecified)	239 to 240
CC(CN1CCOCC1)N1CCN(c2ccccc2)CC1 (stereo unspecified)	55 to 56
CCOC(=O)c1n[nH]c(C)c1Cl	106 to 107
CCN1CCCC1CNC(=O)c1sc(CO)c(C)c1OC (stereo unspecified)	118 to 119
OC12CC3CC(C1)CC(O)(C3)C2	169
CCCn1c(=O)c2[nH]c(-c3cc(C)n(CC(=O)Nc4ccccc4)n3)nc2n(CCC)c1=O	255 to 257
CNC(=NC#N)NCCSCc1csc(NC(=N)N)n1	159 to 161
S=C(NCCCN1CCN(Cc2ccc(Cl)cc2)CC1)NC1CCCCC1	127 to 128
CC(=O)Nc1ccc(CCN(C)C)c2cn[nH]c12	223
COc1cc(-c2cnc3[nH]cc(C(=O)C4(C)CCCCC4)c3n2)cc(OC)c1OC	246 to 247
CC(C)(C)OC(=O)NC(C(=O)Oc1ccc(/C=c2\[nH]c(=O)/c(=C/c3ccccc3)[nH]c2=O)nc1)c1ccccc1 (stereo unspecified)	198
CC(C)(C)OC(=O)N1CSCC1C(=O)Nc1ccc(-n2nc(C(F)(F)F)cc2C(F)(F)F)cc1 (stereo unspecified)	82 to 84
CN(C(=O)c1ccc2nonc2c1)C1CCCOC1 (stereo unspecified)	134 to 135

Other lines, results leading:

melting point [°C]	SMILES
230 to 240	COc1ccc(/C(C)=C/c2ccc(C(=O)OCc3ccccc3)cc2)cc1C12CC3CC(CC(C3)C1)C2
273 to 274	Cn1ncc(/C=C/C(=O)Nc2ccc(CC(=O)NN)cc2)c1-c1ccc(F)cc1
181 to 182	CC(C)(C)C(NC(=O)CCCc1cccnc1)NC(=NC#N)Nc1cccc2ncccc12 (stereo unspecified)
209 to 210	COc1cc(C(=O)N2Cc3ccccc3Cc3ccccc32)ccc1NC(=O)c1ccccc1C
94 to 97	O=C1c2cccc(-c3ccc(C(F)(F)F)cc3)c2CC1Br (stereo unspecified)
262 to 265	O=c1cc(-c2ccc(CO)cc2)oc2ccc(O)cc12
98 to 100	FC(F)C(F)(F)Oc1cccc(Nc2nccc(-c3cccc(OC(F)(F)F)c3)n2)c1
227 to 230	O=C(NC(=O)c1c(Cl)cccc1Cl)Nc1cc(-c2ccc(C(F)(F)F)cc2)on1
> 250	O=C(Nc1ccncc1)c1n[nH]c2ccc(-c3cncc4[nH]ccc34)cc12
141 to 145	COC(=O)c1ccc(CCC(C)(C)NCC(O)c2cc3ccccc3o2)cc1 (stereo unspecified)
93 to 96	CC(=O)NC(C)Cc1ccc(CCC(=O)O)cc1 (stereo unspecified)
229 to 230	O=C1Nc2ccccc2CCCC1N1C(=O)c2ccccc2C1=O (stereo unspecified)
289 to 290	COc1ccc(-c2ccc(C#N)cc2)cc1-c1nc2cc(C#N)ccc2[nH]1
75 to 77	COc1cc(C(C)=O)ccc1-c1ccc(F)cc1
172	CSC(=NC#N)NCCN1CCC(Nc2nc3cccnc3n2Cc2ccc(F)cc2)CC1
121 to 123	CC(C)N1CCN(CCN2CCC(c3noc4cc(F)ccc34)CC2)C1=O
183 to 184	Nc1nc(Nc2ccccc2)sc1C(=O)c1c(F)cccc1F
221 to 222	Cc1nc(N)nc(N)c1-c1ccc2ccccc2c1
> 266	NS(=O)(=O)c1cccc(-c2cn(-c3cc(C(F)(F)F)cc(-c4ccc(C(F)(F)F)cc4)n3)cn2)c1
194 to 196	O=C(NCC(F)(F)F)c1ccc(-c2ccc3nnn(Cc4ccc5ncccc5c4)c3n2)cc1F
123 to 124	CCOC(=O)c1cn2c(-c3ccccc3)cccc2n1
228 to 231	CCn1nc(C)c2c(NCc3ccccc3)c3ccccc3nc21
126 to 128	CCOCc1cc2cc(Cl)ccc2oc1=Nc1ccc(Cl)cc1
129	Nc1cccc(S(=O)(=O)NCc2cccnc2)c1
180	Cc1cc(COc2nn3c(-c4ccccc4)nnc3cc2-c2ccccc2)no1
105 to 108	O=C1c2cccc3cccc(c23)C(=O)N1CCCCO
156 to 157	O=c1ccn(-c2cccc(C(F)(F)F)c2)nc1-c1ccnn1-c1ccccc1
125 to 126	Cc1oc(-c2ccc(C(F)(F)F)cc2)nc1COc1cccc(CN(O)C(N)=O)c1

melting point [°C]	SMILES
258 to 260	Cn1cc(C(=O)O)c(=O)c2cc3cc(F)c(N4CCNC(c5ccco5)C4)cc3nc21 (racemic)
217 to 220	CCNC(=O)CCCC1CCN(Cc2cnc3c(C)c(NC(=O)c4ccc(-c5ccc(F)cc5)cc4)ccc3c2)CC1
173 to 175	N#Cc1ccc(NC(=N)Nc2ncccc2OCc2ccccc2)cc1
77 to 79	CC(C)c1cccc(C(C)C)c1NC(=O)CN1CCCN(CCCSc2nc3cccc(C(F)(F)F)c3o2)CC1
196	OCC1OC(n2cnc3c(NCc4cccc(O)c4)ncnc32)C(O)C1O (stereo unspecified)
127	Clc1ccc(/C=C/C2=CCN(Cc3ccc(Cl)cc3)CC2)cc1
141 to 144	FC(F)(F)C(c1ccc(Cl)cc1)C(c1ccccc1)c1ccc(OCC2CO2)cc1 (stereo unspecified)
121 to 123	CCNc1cnc(-c2ccccc2)c(-c2ccccc2)n1
106	CCC(=O)C1c2cccc(O)c2C(=O)c2c(OC(C)=O)cccc21 (stereo unspecified)
218 to 220	S=c1n(CCc2ccc(-c3nnn[nH]3)cc2)ccn1C1CCc2ccccc2C1 (stereo unspecified)
125	CCc1nc(-c2ccc(OCCC3CCN(c4ccc(C)nn4)CC3)cc2)no1
210	COc1ccc(Nc2ccnc(Nc3cc(OC)c(OC)c(OC)c3)n2)cc1
93	CN1C(=O)C(C2=COc3ccccc3O2)=C(c2cn(C(=O)OC(C)(C)C)c3ccc(OCc4ccccc4)cc23)C1=O
102 to 103	O=S(=O)(NCC(O)CN1c2ccccc2CCc2ccccc21)c1ccc(OC(F)(F)F)cc1 (stereo unspecified)
226 to 227	COC(=O)c1ccc(-c2ccc3cc(OS(=O)(=O)C(F)(F)F)c(C45CC6CC(CC(C6)C4)C5)cc3c2)cc1
71 to 76	NCCOc1ccc(/C(=C(\c2ccccc2)C(F)(F)F)c2ccccc2)cc1
99 to 101	Fc1ccc(CCN2CCC(N3CCc4ccc(Br)cc43)CC2)cc1
170 to 171	Cc1cc(N2CCC(=O)CC2)c2cc(C)c(-c3ccc(Cl)cc3Cl)n2n1
107 to 108	O=C1CC(=CN2CCOCC2)Oc2c(OCc3ccccc3)cccc21
174	COc1cc(NC(C)=O)c(Cl)cc1NC(=O)N1CCN(Cc2ccccc2)CC1
107 to 109	CC(O)c1cccc(C=Cc2ccc3cc(F)ccc3n2)c1 (stereo unspecified)
135 to 138	Cc1nc(C)c(Cl)c(NCc2ccc(OCc3ccccc3)c(OCC(F)(F)F)c2)n1
80 to 81	CCCCc1cc(=O)c(C(=O)OCC)cn1Cc1ccc(-c2ccccc2C(=O)OC(C)(C)C)cc1
183 to 187	Cc1cc(C)cc(NC(=O)Cc2ccc(OC(C)C(=O)O)cc2)c1 (stereo unspecified)
117 to 119	COc1cc(OC(C)C)ccc1-c1c(OC(C)C)cccc1C(=O)O
99 to 101	CC(COc1ccc(CC(N)=O)cc1Cl)NCC(O)c1cccc(Cl)c1 (stereo unspecified)
218 to 220	CCc1cc(O)cc2cc(-c3ccc(O)cc3)oc12
